From patent US11129782B2, “Derivatives of PPD useful for coloring hair and skin” (National University of Singapore, priority 2017, dated 2021)

Key:
HaCaT cells = test: In vitro cell cytotoxicity (MTT) assay on HaCaT cells; type: cell-based, human; settings: Homo sapiens, HaCaT; 72 h incubation; MTT
Summary of the method: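 HaCaT keratinocytes seeded at 5×10^3/well, after 24 h exposed 72 h to test compounds serially diluted from 500 μM to 1.9 μM in 10% FBS DMEM. MTT (1 mg/ml, 4 h) read at 570 nm; viability expressed as percent of untreated control.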

[1] = test system: cysteine peptide (Ac-RFAACAA-COOH); test: Direct Peptide Reactivity Assay, cysteine peptide; settings: for % of Cysteine depletion, Avg / % of Cysteine depletion, Rep 2 / % of Cysteine depletion, Rep 3 / Reactivity Class: 1:10; for % of Cysteine depletion, Rep 1: peptide 0.02 mM : test chemical 0.2 mM (1:10); for Reactivity Class: cysteine
Method: For cysteine DPRA, an additional step was performed.
(§1) The mass spectrometric analysis was performed by use of a AB SCIEX QTRAP 5500 tandem mass spectrometry (MS/MS) system (AB SCIEX, Framingham, Mass., USA) operating in triple quadrupole positive mode (ESI+) equipped with an AB Sciex Turbo Ion Spray interface. Acquisition and analysis of data were performed with Analyst software ver. 1.6.2 (Applied Biosystems).

[2] = test system: lysine peptide (Ac-RFAAKAA-COOH); test: Direct Peptide Reactivity Assay, lysine peptide; settings: for % of Lysine depletion, Avg / % of Lysine depletion, Rep 2 / % of Lysine depletion, Rep 3 / Reactivity Class: 1:50; for % of Lysine depletion, Rep 1: peptide 0.02 mM : test chemical 1 mM (1:50); for Reactivity Class: lysine
Method: as §1

IL-8 = IL-8 ELISA on THP-1 cell supernatants; type: cell-based, human; settings: preliminary ELISA, CV75
Method: For cytokine profiling in THP-1, supernatants from wells were collected and then used for cytokine analysis by a Chemokine immunosorbent assay Bio-legend ELISA Max kit. The levels of available IL-8 protein from THP-1 cell supernatants was estimated using this kit which are regulated upon activation of THP-1 model. Surface receptor expression of human CD-86, CD-54, MHC-I and IL-T3 were analyzed by flow cytometry using standard BD FACS analyzer with PE and FITC fluorescent labeled antibodies from Biolegend and e Bioscience.
In order to understand the effect of modified PPD hairdyes on THP-1 immune sensitization, a certain degree of Cytotoxicity at CV75% viable where 25% cell death is required before evaluation of supernatants in THP-1 models for expression of cytokine IL-8 and receptor expression of CD86, CD54, MHC-I and IL-T3 surface receptors upon treatment with standard PPD and modified hair dye compounds. Most allergens show a specific dose-dependent alteration of CD86 and/or CD54 expression or secretion of cytokine profiles. But depending on chemical, the alteration pattern may vary.

[3] = Oxidation stability of 1% PPD patch test formulation in paraffin (mass spectrometry); type: physicochemical; settings: several days in air
Text: (§2) This is true even after 2 days of patch test as the test field remains colourless.

sensitized patients = test: Patch test with 1% PPD formulation in paraffin; type: in vivo, human; settings: 1% PPD patch test formulation in paraffin
Text: as §2
Thus there remains a need for hair and temporary skin colourings that avoid such allergic responses and may be suitable for use in subjects who show sensitivity to conventional colouring materials.

[4] = test system: cysteine and lysine peptides; test: Direct Peptide Reactivity Assay, mean of cysteine and lysine depletion (FIG. 12)
Method: Direct reactivity of test chemical to lysine-based synthetic peptide was determined in reactions containing 100 mM ammonium acetate buffer (pH 10.2). The final concentration of lysine peptide was 20 μM in a final reaction volume of 0.3 ml. Direct reactivity of test chemicals to cysteine-based synthetic peptide was determined in 100 mM Sodium Phosphate buffer of pH 7.5.
For the DPRA, incubation mixtures were prepared using each peptide to test compound ratios of both 1:10 for cysteine peptide and 1:50 for lysine peptide, according to Table 19. […] Sample reactions were initiated by adding 3 μl of a test chemical stock solution for cysteine and 15 μl stock solution for lysine peptide. These mixtures were then placed in a temperature-controlled shaking incubator at 25° C.
At each time point (20 mins/24 hours), the incubation mixtures were quenched with 75 μL of 95% ACN/H2O, and mildly vortexed (600 rpm, 3 seconds). For Lysine DPRA experiment, 10 μl of aliquot was diluted with 2% ACN/H2O, vortexed and stored at −80° C. until analysis by LC-MS/MS. For cysteine DPRA, an additional step was performed. 10 μl of cysteine reaction mixture, at time points 20 min and 24 h were diluted in 180 μl of 2% ACN/H2O. To which, a 10 μl aliquot of a 16 mM dithiothreitol solution (prepared in water) was then added, and samples were heated in a 45° C. oven for 30 min, then allowed to cool to room temperature prior to analysis. The peptide depletion (PD) percentage was obtained using this equation.

Nc1ccc(N)cc1 [PPD, para-phenylenediamine, reference compound]
IC50 (HaCaT cells): 23.5 µM | % of Cysteine depletion, Avg ([1]; 20 min): 15.1% | % of Cysteine depletion, Rep 2 ([1]; 20 min): 14% | % of Cysteine depletion, Rep 3 ([1]; 20 min): 15.2% | % of Cysteine depletion, Rep 1 ([1]; 20 min): 16.2% | % of Cysteine depletion, Avg ([1]; 24 h): 77.6% | % of Cysteine depletion, Rep 2 ([1]; 24 h): 78% | % of Cysteine depletion, Rep 3 ([1]; 24 h): 77.2% | % of Cysteine depletion, Rep 1 ([1]; 24 h): 77.7% | Reactivity Class ([1]; 20 min): low and Low | Reactivity Class ([1]; 24 h): High | % of Lysine depletion, Avg ([2]; 20 min): 14.6% | % of Lysine depletion, Rep 2 ([2]; 20 min): 14.4% | % of Lysine depletion, Rep 3 ([2]; 20 min): 14.6% | % of Lysine depletion, Rep 1 ([2]; 20 min): 14.9% | % of Lysine depletion, Avg ([2]; 24 h): 33.3% | % of Lysine depletion, Rep 2 ([2]; 24 h): 33.1% | % of Lysine depletion, Rep 3 ([2]; 24 h): 33.9% | % of Lysine depletion, Rep 1 ([2]; 24 h): 32.8% | Reactivity Class ([2]; 20 min): Low | Reactivity Class ([2]; 24 h): Moderate | IL-8 expression (IL-8): increased expression | Oxidation stability in paraffin [3]: protected against oxidation | Skin reaction of sensitized patients (sensitized patients): clear localised contact dermatitis | Sensitizing potential predicted from mean peptide depletion ([4]; cysteine 1:10 / lysine 1:50 model): strong sensitizer | Mean peptide depletion ([4]; mean of cysteine (1:10) and lysine (1:50), FIG. 12): 55.5%
